In PMC10787067, “EBF2 Links KMT2D‐Mediated H3K4me1 to Suppress Pancreatic Cancer Progression via Upregulating KLLN” (Advanced Science, 2023):

Tests used:
[1] = tested on: KLLN; test: Western blot and IHC of metastatic foci from treated mice, KLLN; type: in vivo, Human (xenograft in BALB/c nude mice); settings: control vs GSK-LSD1-treated lung metastasis tissues, Figure 5L,M
[2] = tested on: PANC‐1 cells; test: KLLN rescue experiments (CCK-8, colony-formation, Transwell), PANC-1; type: cell-based, Human; settings: p < 0.01, Figure S4H-J
Experimental: (§1) Cell proliferation was determined by Cell Counting Kit‐8 (CCK‐8, Yeasen) and EdU Cell Proliferation Assay kit (Ribobio, Guangzhou, China). Colony formation was observed by staining with 0.1% crystal violet (Sangon Biotechnologies Inc., Shanghai, China). Cell migration and invasion were assessed using […] pore Transwell chambers with (for invasion assay) or without Matrigel (for migration assay). For migration assay, 5 × 10^4 SW1990 or 3 × 10^4 PANC‐1 cells were seeded into the upper chamber of the Transwell apparatus (Corning, USA) in serum‐free medium, and the medium supplemented with 10% FBS was added to the bottom chamber. For invasion assay, 10 × 10^4 SW1990 or 6 × 10^4 PANC‐1 cells were seeded into the upper Corning BioCoat Matrigel invasion chamber. After 24 h, the cells on the upper surface that had not passed through the polycarbonate filter were removed using a moistened cotton swab; the cells having migrated to the lower membrane surface were fixed in 100% methanol for 10 min, stained with 0.4% crystal violet for 15 min, and counted under a microscope (Nikon, Japan) at ×100 magnification. The cells were manually counted using Image J software. Three independent experiments were performed.

[3] = tested on: SW1990 cells; test: Transwell migration and invasion, SW1990; type: cell-based, Human; settings: 24 h, vs Vehicle, p < 0.01, Figure 5H
Experimental: as §1

[4] = tested on: H3K4me1; test: Western blot of H3K4me1 in PANC-1 cells; type: cell-based, Human; settings: 0, 1, 10 or 100 μM GSK-LSD1, Figure S4D
[5] = tested on: H3K4me1; test: Western blot and IHC of metastatic foci from treated mice, H3K4me1; type: in vivo, Human (xenograft in BALB/c nude mice); settings: control vs GSK-LSD1-treated lung metastasis tissues, Figure 5L,M
[6] = tested on: KLLN; test: Western blot of KLLN in SW1990 cells; type: cell-based, Human
Experimental: (§2) SW1990 and PANC‐1 cells were isolated using lysate buffer containing protease inhibitors. Samples containing equal amounts of protein were separated by SDS‐PAGE. After electrophoresis, the proteins were transferred to a PVDF membrane (Millipore, Billerica, MA, USA) and blocked with 5% skim milk for 2 h at room temperature. An overnight incubation of membranes was made at 4 °C with primary antibodies against KMT2D (1:1000; Affinity, China), EBF2 (1:1000; Affinity), and KLLN (1:1000; Abcam, USA). After washing with 1× TBST for three times, a 2 h incubation of membranes was implemented with horseradish peroxidase (HRP)‐gemeled Affinipure Goat Anti‐Rabbit IgG (H + L) (1:10000; ProteinTech, China) or Peroxidase‐gemeled Affinipure Goat Anti‐Mouse IgG (H+L) (1:10000; ProteinTech) at room temperature. Proteins were visualized by chemiluminescence using an ECL kit (Thermo Fisher).

[7] = tested on: PANC‐1 cells; test: Colony-formation and CCK-8 proliferation, PANC-1; type: cell-based, Human; settings: vs Vehicle, p < 0.01, Figure S4E,F
Experimental: as §1

[8] = tested on: PANC‐1 cells; test: Transwell migration and invasion, PANC-1; type: cell-based, Human; settings: 24 h, vs Vehicle, p < 0.01, Figure S4G
Experimental: as §1

[9] = tested on: KDM1A/LSD1; settings: cited from earlier work
From the text: Next, we sought to elucidate the roles of KMT2D‐ and EBF2‐regulated H3K4me1 through profiling the gene transcription in PDAC cells with H3K4me1 activation by GSK‐LSD1 or EBF2 overexpression (EBF2‐OE). […] These differentially expressed genes (DEGs) were overlapped genes between EBF2‐OE and GSK‐LSD1‐treated SW1990 cells. A ...

[10] = tested on: SW1990‐luc xenografts; test: SW1990-luc xenografts in BALB/c nude mice; type: in vivo, Human (xenograft in BALB/c nude mice); settings: n = 5, p < 0.01, two-way ANOVA, dose not given, Figure 5I-K
Experimental: BALB/c nude mice (4 weeks old) were purchased from the Animal Core Facility of Nanjing Medical University. Every 1 × 10^6 SW1990‐luc cells (SW1990 cells labeled with luciferase) were suspended in 100 µL of PBS and Matrigel (Corning) mixture, then subcutaneously injected into the right forelimb of nude mice. The length and width of tumor were measured every 2 or 3 days. Tumor volume was calculated using the formula: Volume = 0.5 × length × width^2. Luciferase signals in nude mice were measured at the first and fourth week after injection. The mice were sacrificed at 30 days for in vivo proliferation assay. Mice were anesthetized with isoflurane gas and sacrificed by cervical dislocation. Tumor tissues of these mice were collected for further analyses. Luciferase signals from D‐luciferin (Cat No. MB1834; MeilunBio, Dalian, China) were measured using IVIS Spectrum (PerkinElmer, USA) at indicated concentrations. The luciferase signal activity was quantitated using the software provided by the manufacturer.

[11] = tested on: EBF2; test: Co-IP with H3K4me1 antibodies from GSK-LSD1-treated SW1990 cell lysates; type: cell-based, Human; settings: vs vehicle, Figure 5P
Experimental: Co‐immunoprecipitation assay was performed as described previously.^[ [61] ^] Briefly, SW1990 cells were transfected with indicated constructs or treated with GSK‐LSD1, washed with cold phosphate buffered saline (PBS), and lysed with cold cell lysis buffer. Then, the lysates were incubated with appropriate specific antibodies or normal rabbit IgG at 4 °C overnight in constant rotation, followed by the addition of protein A/G Sepharose beads and incubation for 2 h at 4 °C. The beads were then washed five times by the lysis buffer. Bead‐bound proteins were resolved by SDS‐PAGE and detected by immunoblotting using indicated antibodies.

[12] = tested on: KLLN; test: Western blot of KLLN in PANC-1 cells; type: cell-based, Human; settings: 0, 1, 10 or 100 μM GSK-LSD1, Figure S4D
Experimental: as §2

## c1ccc([C@@H]2C[C@H]2NC2CCNCC2)cc1 [GSK‐LSD1]
[1]
  KLLN in metastatic foci: upregulation
[2]
  tumor-suppressive phenotype of GSK-LSD1 on knockdown of KLLN: markedly attenuated
[3]; Transwell with Matrigel
  invasion: significantly inhibited
[3]; Transwell without Matrigel
  migration: significantly inhibited
[4]
  H3K4me1 level, concentration dependence: increased the levels of H3K4me1 and KLLN in a concentration‐dependent manner
[5]
  H3K4me1 in metastatic foci: upregulation
[6]; 0, 1, 10, or 100 µM GSK-LSD1, Figure 5E
  KLLN level, concentration dependence: increased the levels of H3K4me1 and KLLN in a concentration‐dependent manner
[6]; Western blot, concentration not given, Figure 4F
  KLLN protein level: significant upregulation
[7]
  proliferation: significantly inhibited
[8]; Transwell with Matrigel
  invasion: significantly inhibited
[8]; Transwell without Matrigel
  migration: significantly inhibited
[9]
  H3K4me1 level via blocking of KDM1A/LSD1: can increase H3K4me1 level
  inhibition of KDM1A/LSD1, in words: selective inhibitor of KDM1A/LSD1
[10]
  xenograft size compared to control mice: significantly smaller sizes of SW1990‐luc xenografts
[11]; H3K4me1 antibodies
  EBF2 co-immunoprecipitated with H3K4me1: co‐immunoprecipitated more EBF2
[11]; concentration not given
  EBF2 expression: without affect EBF2 expression
[12]
  KLLN level, concentration dependence: increased the levels of H3K4me1 and KLLN in a concentration‐dependent manner
